Test results taken from patent US9145436B2 (priority 2010, dated 2015).
Read-outs that look alike come from different tables or passages of the source.

Columns and labels:
[1] = system: TNFa production in J774 cells; assay: Cytokine production in stimulated J774 cells, TNFa (ELISA); assay type: cell-based; settings: Normal (LPS 0.1 μg/mL)
Experimental: (§1) Various analogs were compared in vitro to determine key properties. Antibacterial effect was determined in representative Gram negative (E. coli) and positive (S. aureus) organisms using the method of example 16. Effects on lung inflammation were compared using the method of example 32. BALF (Bronchoalveolar Lavage Fluid) TNFa levels are determined by ELISA. In vitro toxicity is determined by growth inhibition of Jurkat lymphocytes in DMEM medium as determined using Alamar Blue reaction. Effects on cytokine production are determined in J774 cells stimulated with either LPS (0.1 μg/mL) or medium from J774 cells stimulated for 24 h with 0.2 μg/mL LPS. Cytokines are determined by ELISA and expressed as % DMSO control at 50 μM inhibitor concentration.

BALF TNFa = assay: Airway inflammation by inhaled LPS, BALF TNFa by ELISA; assay type: in vivo, DBA or Swiss female mice; settings: 30 minutes prior to LPS challenge
Experimental: as §1
Airway inflammation is induced by inhalation of solutions containing bacterial LPS. 10 μg per mouse is provided intranasally in phosphate buffered saline. 90 minutes after challenge, bronchioalveolar lavage fluid is recovered from the lung using PBS (0.5 mL) injected into the lung via the trachea and frozen prior to analysis for cytokines by ELISA. TNFa is the primary cytokine measured. Compound 2 and other test substances are dissolved in 0.02% citric acid in water, and the pH of the resulting solution is set to 6.2. Compounds are administered 30 minutes prior to challenge either as 25 μL solutions for intranasal use, or as 125 μL volumes for p.o. application in 25 g DBA or Swiss female mice. The results of said interventions include reduction of lung and/or plasma cytokines. Example data are recorded in FIG. 13.

S. aureus = assay: Antibiotic dilution assay, S. aureus; assay type: cell-based; settings: liquid medium, OD600, read-out: Bacterial IC 50 (μM) S. Aureus
Experimental: (§2) The antibiotic activity of the compounds was determined via antibiotic dilution assay. After filling 100 μl growth medium into all the wells of a 96 well plate, the compounds were diluted from 1 mM to 0.010 μM. The growth control wells contained growth medium instead of inhibitory agents. The inhibitory control contained Compound 3 (200 μM). Suspensions of E. coli and B. pumilus in growth medium with an approximate OD600 of 0.03-0.04 were added to the diluted compounds, incubated for 6-8 hours on the shaker at 750 rpm and 37° C. until the growth control had reached an OD600 of about 0.6-0.8. The OD600 was then determined on a standard plate reader.
as §1

Jurkat lymphocytes = assay: In vitro toxicity: growth inhibition of Jurkat lymphocytes, Alamar Blue; assay type: cell-based; settings: DMEM medium
Experimental: as §1

[2] = system: IL-10 production in J774 cells; assay: Cytokine production in stimulated J774 cells, IL-10 (ELISA); assay type: cell-based; settings: Normal (LPS 0.1 μg/mL)
Experimental: as §1

E. coli = assay: Antibiotic dilution assay, E. coli; assay type: cell-based; settings: liquid medium, OD600, read-out: Bacterial IC 50 (μM) E. Coli
Experimental: as §2, §1

HeLa = assay: Cytotoxicity of the substances (TC50), HeLa; assay type: cell-based; settings: HeLa cells
[3] = system: IL-12 production in J774 cells; assay: Cytokine production in stimulated J774 cells, IL-12 (ELISA); assay type: cell-based; settings: Normal (LPS 0.1 μg/mL)
Experimental: as §1

[4] = system: GM_CSF production in J774 cells; assay: Cytokine production in stimulated J774 cells, GM-CSF (ELISA); assay type: cell-based; settings: Cond. (medium from J774 cells stimulated 24 h with 0.2 μg/mL LPS)
Experimental: as §1

Jurkat = assay: Cytotoxicity of the substances (TC50), Jurkat; assay type: cell-based; settings: Jurkat cells
bacteria = settings: relative to azithromycin; cited from earlier work

Row | SMILES | IC50 (S. aureus; Staphylococcus aureus) [µM] | IC50 (E. coli; Escherichia coli) [µM] | IC50 (S. aureus) [µM] | IC50 (E. coli) [µM] | Cytokine production in J774 cells as % DMSO control, TNFa Normal 50 μM [1] [% DMSO control] | BALF TNFa (% Vehicle) 20 μmol/kg i.n. (BALF TNFa) [% Vehicle] | Jurkat Cell toxicity Normal growth limit (Jurkat lymphocytes) [µM] | Cytokine production in J774 cells as % DMSO control, IL-10 Normal 50 μM [2] [% DMSO control] | TC50 HeLa (HeLa) [µM] | Cytokine production in J774 cells as % DMSO control, IL-12 Normal 50 μM [3] [% DMSO control] | Cytokine production in J774 cells as % DMSO control, GM_CSF Cond. 50 μM [4] [% DMSO control] | TC50 Jurkat (Jurkat) [µM] | BALF TNFa (% Vehicle) 200 μmol/kg p.o. (BALF TNFa) [% Vehicle] | antibacterial effectiveness, fold less effective than the cladinosylated molecule (bacteria)
1 | CCC1OC(=O)C(C)C2(O)OC(C)(CC(C)CN(C)C(C)C(=O)C1(C)O)C(OC1OC(C)CC(N(C)C)C1O)C2C (stereo not drawn) [Compound 4, 14-(4-Dimethylamino-3-hydroxy-6-methyl-tetrahydro-pyran-2-yloxy)-5-ethyl-1,6-dihydroxy-2,6,8,9,11,13,15-heptamethyl-4,16-dioxa-9-aza-bicyclo[11.2.1]hexadecane-3,7-dione] | – | – | – | – | – | – | – | – | > 100 | – | – | > 100 | – | –
2 | CC[C@H]1OC(=O)[C@H](C)C(O)[C@H](C)[C@@H](O[C@@H]2O[C@H](C)CC([N+](C)(C)[O-])[C@H]2O)[C@](C)(O)C[C@@H](C)C[N+](C)([O-])[C@H](C)[C@@H](O)[C@]1(C)O (stereo partly drawn) [Compound 5b] | 1920 | 1090 | – | – | 88 | 56 | 100 | 116 | – | 67 | 81 | – | – | –
3 | CCCCCCCCC=CCCCCCCCC(=O)OC1C(OC2C(C)C(=O)C(C)C(=O)OC(CC)C(C)(O)C(OC(=O)CCCCCCCC=CCCCCCCCC)C(C)N(C)CC(C)CC2(C)O)OC(C)CC1N(C)C (stereo not drawn) [Compound 9b] | – | – | 2500 | 1950 | 89 | 112 | 100 | 123 | – | 76 | 53 | – | – | –
4 | CC[C@H]1OC(=O)[C@H](C)[C@@]2(O)O[C@@](C)(C[C@@H](C)CN[C@H](C)[C@@H](O)[C@]1(C)O)[C@H](O[C@@H]1O[C@H](C)C[C@H](NC)[C@H]1O)[C@H]2C [Compound 14] | 1950 | 1320 | – | – | 93 | 62 | 100 | 95 | – | 143 | 153 | – | 95 | –
5 | CC[C@H]1OC(=O)[C@H](C)[C@@H](O)[C@H](C)[C@@H](O[C@@H]2O[C@H](C)C[C@H](N(C)C)[C@H]2O)[C@](C)(O)C[C@@H](C)CN(C)[C@H](C)[C@@H](O)[C@]1(C)O [decladinosyl azithromycin] | – | – | – | – | – | – | – | – | – | – | – | – | – | ca. 5 fold

The next lines start with results.

Row | IC50 (S. aureus; Staphylococcus aureus) [µM] | IC50 (E. coli; Escherichia coli) [µM] | IC50 (S. aureus) [µM] | IC50 (E. coli) [µM] | SMILES | Cytokine production in J774 cells as % DMSO control, TNFa Normal 50 μM [1] [% DMSO control] | BALF TNFa (% Vehicle) 20 μmol/kg i.n. (BALF TNFa) [% Vehicle] | Jurkat Cell toxicity Normal growth limit (Jurkat lymphocytes) [µM] | Cytokine production in J774 cells as % DMSO control, IL-10 Normal 50 μM [2] [% DMSO control] | TC50 HeLa (HeLa) [µM] | Cytokine production in J774 cells as % DMSO control, IL-12 Normal 50 μM [3] [% DMSO control] | Cytokine production in J774 cells as % DMSO control, GM_CSF Cond. 50 μM [4] [% DMSO control] | TC50 Jurkat (Jurkat) [µM] | BALF TNFa (% Vehicle) 200 μmol/kg p.o. (BALF TNFa) [% Vehicle] | antibacterial effectiveness, fold less effective than the cladinosylated molecule (bacteria)
6 | 2.25 | 5.5 | – | – | CC[C@H]1OC(=O)[C@H](C)[C@@H](O[C@H]2C[C@@](C)(OC)[C@@H](O)[C@H](C)O2)[C@H](C)[C@@H](O[C@@H]2O[C@H](C)C[C@H](N(C)C)[C@H]2O)[C@](C)(O)C[C@@H](C)CN(C)[C@H](C)[C@@H](O)[C@]1(C)O [Compound 3, 9a-aza-9a-methyl-9-deoxo-9a-homoerythromycin A, reference compound] | 96 | 75 | 100 | 122 | > 100 | 60 | 118 | > 100 | – | –
7 | 2600 | 980 | – | – | CCOC(=O)CC1(C)C(=O)O[C@H](CC)[C@@](C)(O)[C@H](O)[C@@H](C)N(C)C[C@H](C)C[C@]2(C)O[C@@]1(O)[C@H](C)[C@H]2O[C@@H]1O[C@H](C)CC(N(C)C)[C@H]1O (stereo partly drawn) [Compound 5, [14-(4-Dimethylamino-3-hydroxy-6-methyl-tetrahydro-pyran-2-yloxy)-5-ethyl-1,6,7-trihydroxy-2,6,8,9,11,13,15-heptamethyl-3-oxo-4,16-dioxa-9-aza-bicyclo[11.2.1]hexadec-2-yl]-acetic acid ethyl ester] | 39 | 90 | 100 | 95 | – | 7 | 114 | > 100 | – | –
8 | 1970 | 1270 | – | – | CC[C@H]1OC(=O)[C@H](C)C(=O)[C@H](C)[C@@H](O[C@@H]2O[C@H](C)CC(N(C)C)[C@H]2OC(C)=O)[C@](C)(O)C[C@@H](C)CN(C)[C@H](C)[C@@H](O)[C@]1(C)O (stereo partly drawn) [Compound 8] | 85 | 81 | 100 | 134 | – | 45 | 83 | – | 67 | –
9 | – | – | 2340 | 1090 | CCC1OC(=O)C(C)C(=O)C(C)C(OC2OC(C)CC(NC)C2O)C(C)(O)CC(C)CN(C)C(C)C(O)C1(C)O (stereo not drawn) [Compound 11] | 86 | 80 | 100 | 96 | – | 53 | 174 | – | 98 | –
10 | – | – | 1570 | 2140 | CC[C@H]1OC(=O)[C@H](C)C(O)[C@H](C)[C@@H](O[C@@H]2O[C@H](C)C[C@H](N(C)C)[C@H]2O)/C(C)=C/[C@@H](C)CN(C)[C@H](C)[C@@H](O)[C@]1(C)O (stereo partly drawn) [Compound 13] | 99 | 78 | 100 | 98 | – | 47 | 193 | – | – | –
11 | 1600 | 1350 | – | – | CC[C@H]1OC(=O)[C@H](C)C(=O)[C@H](C)[C@@H](O[C@@H]2O[C@H](C)CC(N(C)C)[C@H]2O)[C@](C)(O)C[C@@H](C)CN(C)[C@H](C)[C@H]2OC(=O)O[C@@]21C (stereo partly drawn) [Example 10] | 72 | 99 | 100 | 118 | – | 40 | 14 | – | – | –
